Measurements as given in US8546320B2, “Hsp9O-targeted anti-cancer chimeric peptide” (Kyoto University, priority 2008, dated 2013).
Like-named read-outs stand apart in the source and are kept apart here. Where a SMILES comes first, the peptide text is derived from it.

Key:
LNCap = format: cell-based, human
[1] = target: T1, interaction between Hsp90 and the Hop's TPR2A domain (Homo sapiens, UniProt P07900); assay: BIACORE competition: Hsp90 pre-mixed with peptide, added to immobilized TPR2A; format: binding; conditions: for Binding of Hsp90 (%): to immobilized TPR2A
T1 construct: histidine tag; made in house; host or cells: Hsp90: E. coli BL21 (pDEST17-Hsp90)
From the text: It was examined whether the TPR peptide designed could compete specifically with the interaction between Hsp90, which is essential for the accurate folding of some carcinogenic protein including survivin in cancer cells, and the Hop's TPR2A domain.

Caki-1 [2] = format: cell-based, human
Caki-1 [3] = format: cell-based, human; conditions: Caki-1, 68 μM
Description: The TPR peptide or the TPR scramble peptide was mixed with a commercially available transfection reagent (Profect-P2 or, Lipofectamine LTX) and the mixture was left to incubate at room temperature for 20 minutes, to form liposome before the complex was added to cancer cells (Caki-1 (kidney cancer cells)); the survival rate of the cells was then measured by using WST-8 solution (Cell Count Reagent SF; Nacalai Tesque, Inc.) and the results were compared with those such as in the case of the TPR scramble peptide or the liposome alone.

U937 [4] = assay: Penetration experiment, confocal microscope, U937; format: cell-based, human; conditions: U937, TAMRA-labeled peptide 10 μM, 1 hour
Description: TPR-TAMRA (TAMRA labeled body) or Antp-TPR-TAMRA (TAMRA labeled body) was added to 1×10^6 peripheral blood mononuclear cells (PBMCs), which were prepared from U937 cells, a mouse leukemia cell strain EL4 or mouse peripheral blood, at a final concentration of 10 μM, and the mixture was cultured for 1 hour. The peptide incorporated in the cell or influx of the medium into the cell after peptide penetration was observed under a confocal microscope (Olympus FV1000 (Olympus)), using a medium containing calcein.
TPR-TAMRA (TAMRA labeled body) or Antp-TPR-TAMRA (TAMRA labeled body) was added to 1×10^6 U937 cells to a final concentration of 10 μM; the mixture was cultured for one hour; and then the behavior of the peptide incorporated into the cell or the influx of the medium into the cell after peptide penetration was observed under a confocal microscope (Olympus FV1000 (Olympus)), using a calcein-containing medium.

HEK293 = assay: cells; format: cell-based, human; conditions: Normal cell HEK; read-out: Anti-tumor activity, IC50 (μM) ± SD
Description: (§1) A total of 3×10^3 cells were inoculated per well on a 96 well plate and cultured in a medium containing 10% FBS for 24 hours, and incubated with 100 μl of a peptide having a gradual increase in concentration at 37° C. for 48 to 72 hours. The survival rate of the cells was measured by using WST-8 solution (Cell Count Reagent SF; Nacalai Tesque, Inc.).
(§2) A total of 3×10^3 cells per well were inoculated onto a 96 well plate, and incubated in a medium containing 10% FBS with 100 μl of a peptide diluted stepwise at 37° C. for 48 to 72 hours. The survival rate of the cells was measured by using WST-8 solution (Cell Count Reagent SF; Nacalai Tesque, Inc.).

U937 [5] = assay: cells; format: cell-based, human
Description: as §2

MRC-5 = format: cell-based, human; conditions: Normal cell MRC5; read-out: Anti-tumor activity, IC50 (μM) ± SD
Description: as §1

T47D = format: cell-based, human; conditions: Breast cancer T47D; read-out: Anti-tumor activity, IC50 (μM) ± SD
Description: as §1

BXPC-3 = format: cell-based, human
leukemia cell strains = format: cell-based, human
Description: as §2

[6] = system: Human pancreatic cancer cells (Bxpc 3); assay: Anti-tumor effect in cancer-bearing animal models, local administration; format: in vivo; conditions: site of administration and behavior observed
Description: Human pancreatic cancer cells (Bxpc 3) (5.0×10^6) were suspended in 150 μl of phosphate-buffered physiological saline (PBS) and transplanted subcutaneously into nude mice (BALB/c Slc-nu/nu). After 5 days, 150 μl of the Antp-TPR peptide suspended in PBS at a concentration of 1 mg/kg to 5 mg/kg was administered to the solid cancer every two days for a total of nine times, and the tumor contraction effect was examined. The tumor diameter was measured with calipers and the tumor volume (mm^3) was calculated according to the formula: length (mm)×minor diameter (mm)^2×0.5.

A549 = format: cell-based; conditions: 24 h
OE19 = format: cell-based; conditions: 24 h
Description: as §1, §2

BT-20 = format: cell-based, human; conditions: 24 h
Description: as §1, §2

K562 = assay: cells; format: cell-based, human
Description: as §2

THP-1 = assay: cells; format: cell-based, human
Description: as §2

HL-60 = assay: cells; format: cell-based, human
Description: as §2

MDA-MB-231 = format: cell-based; conditions: 24 h
cancer cells = assay: Cell viability assay, summary statements on cancer cells; format: cell-based; conditions: 24 h

In the case of CC[C@H](C)[C@H](NC(=O)[C@H](CCCNC(=N)N)NC(=O)[C@H](C)NC(=O)[C@H](Cc1ccc(O)cc1)NC(=O)[C@H](C)NC(=O)[C@@H](N)CCCCN)C(=O)NCC(=O)N[C@@H](CC(N)=O)C(=O)N[C@@H](CO)C(=O)N[C@@H](Cc1ccc(O)cc1)C(=O)N[C@@H](Cc1ccccc1)C(=O)N[C@@H](CCCCN)C(=O)O [TPR], the IC50 (LNCap; Prostate cancer LNcap, read-out: Anti-tumor activity, IC50 (μM) ± SD) is reported as over 352 µM, the “inhibition of the interaction between Hsp90 and TPR2A” value ([1]; increasing peptide concentration) is reported as “exerts an influence on the interaction between Hsp90 and TPR2A” and the “Binding of Hsp90 (%)” value ([1]; peptide 1.411 μM) is reported as 88.19%. For the same compound, the “Binding of Hsp90 (%)” value ([1]; peptide 14.11 μM) was 84.60%, the “Binding of Hsp90 (%)” value ([1]; peptide 141.1 μM) was 72.26% and the “Binding of Hsp90 (%)” value ([1]; peptide 282.2 μM) was 29.75%. For the same compound, the “Binding of Hsp90 (%)” value ([1]; peptide 705.5 μM) was 0%, the IC50 (Caki-1 [2]; Kidney cancer Caki-1, read-out: Anti-tumor activity, IC50 (μM) ± SD) was over 352 µM and the “killing effect after introduction with transfection reagent” value (Caki-1 [3]) was “observed when the TPR peptide was introduced”. The intracellular penetration (U937 [4]) was “did not penetrate into the cell”, the IC50 (HEK293) was over 352 µM and the “Cell Survival Rate (%)” value (U937 [5]) was 92.79%. For the same compound, the “Anti-cancer activity (% relative to wild-type peptide)” value (U937 [5]; U937, wild-type peptide = 100%) was 9.39%, the “Decrease in cell survival rate (% relative to wild-type peptide)” value (U937 [5]; U937, wild-type peptide = 100%) was 25.04% and the IC50 (MRC-5) was over 352 µM. The IC50 (T47D) was over 352 µM and the IC50 (BXPC-3; Pancreatic cancer Bxpc3, read-out: Anti-tumor activity, IC50 (μM) ± SD) was over 352 µM.

In the case of CC[C@H](C)[C@H](NC(=O)[C@H](CCCNC(=N)N)NC(=O)[C@H](C)NC(=O)[C@H](Cc1ccc(O)cc1)NC(=O)[C@H](C)NC(=O)[C@H](CCCCN)NC(=O)[C@H](CCCCN)NC(=O)[C@H](CCCCN)NC(=O)[C@H](Cc1c[nH]c2ccccc12)NC(=O)[C@H](CCCCN)NC(=O)[C@H](CCSC)NC(=O)[C@H](CCCNC(=N)N)NC(=O)[C@H](CCCNC(=N)N)NC(=O)[C@H](CC(N)=O)NC(=O)[C@H](CCC(N)=O)NC(=O)[C@H](Cc1ccccc1)NC(=O)[C@H](Cc1c[nH]c2ccccc12)NC(=O)[C@@H](NC(=O)[C@H](CCCCN)NC(=O)[C@@H](NC(=O)[C@H](CCC(N)=O)NC(=O)[C@@H](N)CCCNC(=N)N)[C@@H](C)CC)[C@@H](C)CC)C(=O)NCC(=O)N[C@@H](CC(N)=O)C(=O)N[C@@H](CO)C(=O)N[C@@H](Cc1ccc(O)cc1)C(=O)N[C@@H](Cc1ccccc1)C(=O)N[C@@H](CCCCN)C(=O)O [Antp-TPR] (H-RQIKIWFQNRRMKWKKKAYARIGNSYFK-OH; N-terminus and C-terminus assumed), the IC50 (leukemia cell strains) is reported as 20 to 60 µM, the “toxicity to the mice” value [6] is reported as “little toxicity to the mice” and the IC50 (LNCap; 24 h) is reported as 49.1 ± 3 µM. It also gave an IC50 (Caki-1 [2]; 24 h) of 43.3 ± 3 µM, an IC50 (A549) of 52.9 ± 2.5 µM and an IC50 (OE19) of 29.9 ± 3.4 µM. For the same compound, the IC50 (BT-20) was 32.8 ± 5.5 µM, the IC50 (K562) was 54.2 µM and the IC50 (THP-1) was 24.7 µM. The IC50 (HL-60) was 46.4 µM, the “Cell Survival Rate (%)” value (U937 [5]) was 23.24% and the IC50 (U937 [5]) was 25.2 µM. It also gave an IC50 (MDA-MB-231) of 56.9 ± 12.3 µM, an IC50 (BXPC-3; 24 h) of 39.8 ± 2.2 µM and an IC50 (cancer cells) of 20 to 60 µM.
